Reference: the NIST ThermoML archive (doi:10.1016/j.jct.2007.11.011)

Test: xn = mol fraction of the nth substance listed
Settings: Liquid

CCOS(=O)(=O)[O-].CCn1cc[n+](C)c1 [1-ethyl-3-methylimidazolium ethyl sulfate] + CO
mass density [kg/m3]
Settings	100 kPa	2500 kPa	5000 kPa	10000 kPa	15000 kPa	20000 kPa	25000 kPa	30000 kPa	35000 kPa
303.15 K, x1 = 0.04781	–	–	–	–	–	892.79	896.28	899.65	902.86
303.15 K, x1 = 0.1026	–	–	–	–	–	965.4	968.54	971.57	974.42
303.15 K, x1 = 0.1977	–	–	–	–	–	1047.97	1050.68	1053.34	1055.86
303.15 K, x1 = 0.2432	–	–	–	–	–	1076.28	1078.9	1081.44	1083.87
303.15 K, x1 = 0.3026	–	–	–	–	–	1106.82	1109.29	1111.72	1114.04
303.15 K, x1 = 0.3887	–	–	–	–	1137.67	1140.05	1142.39	1144.7	1146.89
303.15 K, x1 = 0.485	–	–	–	–	1165.38	1167.67	1169.9	1172.11	1174.2
303.15 K, x1 = 0.589	–	–	–	–	1187.91	1190.1	1192.25	1194.38	1196.4
303.15 K, x1 = 0.7289	–	–	–	–	1210.81	1212.92	1214.99	1217.04	1219
303.15 K, x1 = 0.8521	–	–	–	–	1225.51	1227.56	1229.58	1231.59	1233.49
303.15 K, x1 = 0.9397	–	–	–	–	1234.67	1236.7	1238.71	1240.68	1242.56
313.15 K, x1 = 0.04781	868.71	870.87	873	877.12	881.03	884.83	888.46	891.58	896.52
313.15 K, x1 = 0.1026	943.67	945.44	947.28	950.87	954.31	957.65	960.89	964.01	967.07
313.15 K, x1 = 0.1977	1028.79	1030.21	1031.77	1034.78	1037.72	1040.6	1043.41	1046.12	1048.8
313.15 K, x1 = 0.2432	1057.64	1059.08	1060.59	1063.49	1066.28	1069.03	1071.73	1074.34	1076.92
313.15 K, x1 = 0.3026	1088.94	1090.22	1091.62	1094.33	1097	1099.6	1102.15	1104.62	1107.08
313.15 K, x1 = 0.3887	1122.96	1124.22	1125.52	1128.06	1130.57	1133.05	1135.46	1137.8	1140.13
313.15 K, x1 = 0.485	1151.19	1152.35	1153.6	1156.03	1158.42	1160.76	1163.07	1165.3	1167.55
313.15 K, x1 = 0.589	1174.15	1175.21	1176.41	1178.75	1181.04	1183.3	1185.51	1187.68	1189.83
313.15 K, x1 = 0.7289	1197.48	1198.52	1199.65	1201.89	1204.09	1206.26	1208.39	1210.48	1212.56
313.15 K, x1 = 0.8521	1212.41	1213.23	1214.31	1216.48	1218.62	1220.72	1222.81	1224.83	1226.88
313.15 K, x1 = 0.9397	1221.68	1222.7	1223.82	1225.96	1228.06	1230.16	1232.21	1234.23	1236.23
323.15 K, x1 = 0.04781	859.88	862.14	864.43	868.74	872.87	876.82	880.61	884.24	887.77
323.15 K, x1 = 0.1026	935.3	937.17	939.08	942.8	946.41	949.87	953.21	956.44	959.59
323.15 K, x1 = 0.1977	1020.88	1022.39	1024.01	1027.14	1030.2	1033.16	1036.04	1038.84	1041.58
323.15 K, x1 = 0.2432	1049.97	1051.46	1052.99	1055.97	1058.89	1061.72	1064.46	1067.16	1069.79
323.15 K, x1 = 0.3026	1081.45	1082.65	1084.11	1086.92	1089.69	1092.38	1094.99	1097.52	1100.04
323.15 K, x1 = 0.3887	1115.61	1116.83	1118.22	1120.88	1123.48	1126.02	1128.5	1130.9	1133.28
323.15 K, x1 = 0.485	1143.95	1145.15	1146.43	1148.93	1151.4	1153.83	1156.17	1158.47	1160.75
323.15 K, x1 = 0.589	1167	1168.12	1169.35	1171.75	1174.11	1176.44	1178.7	1180.91	1183.11
323.15 K, x1 = 0.7289	1190.46	1191.53	1192.7	1194.99	1197.27	1199.49	1201.68	1203.82	1205.91
323.15 K, x1 = 0.8521	1205.38	1206.3	1207.44	1209.67	1211.88	1214.04	1216.15	1218.23	1220.28
323.15 K, x1 = 0.9397	1214.87	1215.9	1217.06	1219.28	1221.46	1223.61	1225.7	1227.76	1229.79
333.15 K, x1 = 0.04781	850.98	853.34	855.7	860.18	864.49	868.61	872.54	876.32	879.95
333.15 K, x1 = 0.1026	926.85	928.81	930.83	934.71	938.46	942.07	945.55	948.89	952.14
333.15 K, x1 = 0.1977	1012.95	1014.54	1016.23	1019.48	1022.66	1025.73	1028.71	1031.6	1034.42
333.15 K, x1 = 0.2432	1042.28	1043.81	1045.4	1048.48	1051.51	1054.43	1057.29	1060.06	1062.76
333.15 K, x1 = 0.3026	1073.72	1075.11	1076.58	1079.47	1082.32	1085.07	1087.76	1090.37	1092.96
333.15 K, x1 = 0.3887	1108.15	1109.48	1110.88	1113.59	1116.27	1118.87	1121.41	1123.9	1126.35
333.15 K, x1 = 0.485	1136.7	1137.95	1139.28	1141.86	1144.4	1146.86	1149.29	1151.66	1153.97
333.15 K, x1 = 0.589	1159.94	1161.11	1162.35	1164.82	1167.24	1169.62	1171.94	1174.22	1176.46
333.15 K, x1 = 0.7289	1183.49	1184.59	1185.79	1188.13	1190.47	1192.77	1194.98	1197.18	1199.35
333.15 K, x1 = 0.8521	1198.51	1199.19	1200.35	1202.62	1204.87	1207.1	1209.26	1211.4	1213.49
333.15 K, x1 = 0.9397	1207.93	1209.04	1210.2	1212.45	1214.69	1216.87	1219.03	1221.13	1223.21
